Assay results published in patent US9187467B2, “2-phenyl benzothiazole linked imidazole compounds as potential anticancer agents and process for the preparation thereof” (Council of Scientific and Industrial Research, priority 2012, dated 2015).
Like-named read-outs stand apart in the source and are kept apart here.

Experiments:
Type in all cases: cell-based, human
HL-60 (TB) = assay: SRB anticancer assay, leukemia; parameters: Log10GI50: unit not given here
HCT-116 = assay: SRB anticancer assay, colon; settings: Homo sapiens, HCT-116, 48 h
SNB-19 = assay: SRB anticancer assay, CNS; parameters: Log10GI50: unit not given here
SNB-75 = assay: SRB anticancer assay, CNS; parameters: Log10GI50: unit not given here
U251 = assay: SRB anticancer assay, CNS; parameters: Log10GI50: unit not given here
OVCAR-5 = assay: SRB anticancer assay, ovarian; settings: Homo sapiens, OVCAR-5, 48 h
786-0 = assay: SRB anticancer assay, renal
UO-31 = assay: SRB anticancer assay, renal; parameters: Log10GI50: unit not given here
RXF 393 = assay: SRB anticancer assay, renal; parameters: Log10GI50: unit not given here
DU-145 = assay: SRB anticancer assay, prostate; parameters: Log10GI50: unit not given here
MDA-MB-231/ATCC = assay: SRB anticancer assay, breast; parameters: Log10GI50: unit not given here; settings: for GI50: Homo sapiens, MDA-MB-231, 48 h, 48 h, read-out: GI50
BT-549 = assay: SRB anticancer assay, breast; settings: Homo sapiens, BT-549, 48 h
MALME-3M = assay: SRB anticancer assay, melanoma; parameters: Log10GI50: unit not given here
Breast cancer cell lines = assay: SRB anticancer assay, panel result
Method: (§1) The compounds were evaluated for anticancer activity against sixty human cancer cells derived from nine cancer types (leukemia cell line, non-small-cell lung cell line, colon cell line, CNS cell line, melanoma cell line, ovarian cell line, prostate cell line, renal cancer cell line and breast cancer cell line) as shown in Table 1. For each compound, dose response curves for each cell line were measured at a minimum of five concentrations at 10 fold dilutions. A protocol of 48 h continuous drug exposure was used and a sulforhodamine B (SRB) protein assay was used to estimate cell viability or growth.

CNS cancer cell lines = assay: SRB anticancer assay, panel result
Method: as §1

Colon cancer cell lines = assay: SRB anticancer assay, panel result
Method: as §1

[1] = test system: Leukemia cancer cell lines; assay: SRB anticancer assay, panel result
Method: as §1

[2] = test system: Melanoma cancer cell lines; assay: SRB anticancer assay, panel result
Method: as §1

[3] = test system: Non-small cell lung cancer cell lines; assay: SRB anticancer assay, panel result
Method: as §1

[4] = test system: Ovarian cancer cell lines; assay: SRB anticancer assay, panel result
Method: as §1

[5] = test system: Prostate cancer cell lines; assay: SRB anticancer assay, panel result
Method: as §1

Renal cancer cell lines = assay: SRB anticancer assay, panel result
Method: as §1

`COc1cc2nc(-c3ccc(-n4cncc4-c4ccc(N)cc4)cc3)sc2c(OC)c1OC` [Compound 7h, 4-(1-(4-(5,6,7-Trimethoxybenzo[d]thiazol-2-yl)phenyl)-1H-imidazol-5-yl)benzenamine] showed a Log10GI50 (HL-60 (TB); HL-60(TB), present compounds) of −6.00, a GI50 (HL-60 (TB); Homo sapiens, HL-60, 48 h) of 0.989 µM and a GI50 (HCT-116) of 3.81 µM. The GI50 (SNB-19; Homo sapiens, SNB-19, 48 h) was 12.3 µM, the Log10GI50 (SNB-19; SNB-19, present compounds) was −4.91 and the GI50 (SNB-75; Homo sapiens, SNB-75, 48 h) was 5.94 µM. The Log10GI50 (SNB-75; SNB-75, present compounds) was −5.23, the GI50 (U251; Homo sapiens, U-251, U251, 48 h) was 3.84 µM and the Log10GI50 (U251; U251, present compounds) was −5.42. For the same molecule, the GI50 (OVCAR-5) was 34.3 µM, the Log10GI50 (786-0; 786-0, present compounds) was −5.20 log10 M and the GI50 (786-0; Homo sapiens, 786-0, 48 h) was 6.26 µM. It also gave a GI50 (UO-31; Homo sapiens, UO-31, 48 h) of 1.55 µM, a Log10GI50 (UO-31; UO-31, present compounds) of −5.81 and a GI50 (RXF 393; Homo sapiens, RXF 393, 48 h) of 4.41 µM. For the same molecule, the Log10GI50 (RXF 393; RXF 393, present compounds) was −5.36, the Log10GI50 (DU-145; DU-145, present compounds) was −5.04 and the GI50 (DU-145; Homo sapiens, DU-145, 48 h) was 7.25 µM. It also gave a GI50 (MDA-MB-231/ATCC; MDA-MB-231/ATCC (row head MDA-MB-)) of 3.65 µM, a GI50 (MDA-MB-231/ATCC; row head printed 231/ATCC (second line of MDA-MB-231/ATCC)) of 5.36 µM and a Log10GI50 (MDA-MB-231/ATCC; MDA-MB-231/ATCC, present compounds) of −5.44. It also gave a GI50 (BT-549) of 1.59 µM, a GI50 (MALME-3M; Homo sapiens, Malme-3M, 48 h) of 0.71 µM and a Log10GI50 (MALME-3M; MALME-3M, present compounds) of −6.15. For the same molecule, the “mean graph midpoint value (MG_MID) of log10 TGI” value (Breast cancer cell lines; Breast panel, total inhibition of net cell growth) was −4.47, the CC50 (Breast cancer cell lines; Homo sapiens, Breast panel, 50% net cell death, read-out: mean graph midpoint value (MG_MID) of Log10 LC50 (converted)) was > 100 µM and the GI50 (Breast cancer cell lines; Homo sapiens, Breast panel, read-out: mean graph midpoint value (MG_MID) of Log10 GI50 (converted)) was 2.82 µM. For the same molecule, the GI50 (Breast cancer cell lines; Homo sapiens, six breast cancer cell lines, exposure at least 48 h, read-out: GI50, range over the panel) was 1.59 to 5.36 µM, the “mean graph midpoint value (MG_MID) of log10 TGI” value (CNS cancer cell lines; CNS panel, total inhibition of net cell growth) was −4.51 and the CC50 (CNS cancer cell lines; Homo sapiens, CNS panel, 50% net cell death, read-out: mean graph midpoint value (MG_MID) of Log10 LC50 (converted)) was 66.1 µM. The GI50 (CNS cancer cell lines; Homo sapiens, CNS panel, read-out: mean graph midpoint value (MG_MID) of Log10 GI50 (converted)) was 5.75 µM, the GI50 (CNS cancer cell lines; Homo sapiens, six CNS cancer cell lines, exposure at least 48 h, read-out: GI50, range over the panel) was 1.53 to 12.3 µM and the “mean graph midpoint value (MG_MID) of log10 TGI” value (Colon cancer cell lines; Colon panel, total inhibition of net cell growth) was >−4.0. The LC50 (Colon cancer cell lines; Homo sapiens, Colon panel, 50% net cell death, read-out: mean graph midpoint value (MG_MID) of Log10 LC50 (converted)) was > 100 µM, the GI50 (Colon cancer cell lines; Homo sapiens, Colon panel, read-out: mean graph midpoint value (MG_MID) of Log10 GI50 (converted)) was 3.31 µM and the GI50 (Colon cancer cell lines; Homo sapiens, seven colon cancer cell lines, exposure at least 48 h, read-out: GI50, range over the panel) was 2.79 to 3.81 µM. For the same molecule, the LC50 ([1]; Homo sapiens, Leukemia panel, 50% net cell death, read-out: mean graph midpoint value (MG_MID) of Log10 LC50 (converted)) was > 100 µM, the GI50 ([1]; Homo sapiens, Leukemia panel, read-out: mean graph midpoint value (MG_MID) of Log10 GI50 (converted)) was 1.2 µM and the GI50 ([1]; Homo sapiens, six leukemia cancer cell lines, exposure at least 48 h, read-out: GI50, range over the panel) was 0.989 to 1.4 µM. For the same molecule, the “mean graph midpoint value (MG_MID) of log10 TGI” value ([1]; Leukemia panel, total inhibition of net cell growth) was >−4.0, the LC50 ([2]; Homo sapiens, Melanoma panel, 50% net cell death, read-out: mean graph midpoint value (MG_MID) of Log10 LC50 (converted)) was 97.7 µM and the GI50 ([2]; Homo sapiens, Melanoma panel, read-out: mean graph midpoint value (MG_MID) of Log10 GI50 (converted)) was 4.79 µM. For the same molecule, the GI50 ([2]; Homo sapiens, nine melanoma cancer cell lines, exposure at least 48 h, read-out: GI50, range over the panel) was 0.71 to 6.4 µM, the “mean graph midpoint value (MG_MID) of log10 TGI” value ([2]; Melanoma panel, total inhibition of net cell growth) was −4.13 and the LC50 ([3]; Homo sapiens, Non-small cell lung panel, 50% net cell death, read-out: mean graph midpoint value (MG_MID) of Log10 LC50 (converted)) was 93.3 µM. For the same molecule, the GI50 ([3]; Homo sapiens, Non-small cell lung panel, read-out: mean graph midpoint value (MG_MID) of Log10 GI50 (converted)) was 2.57 µM, the GI50 ([3]; Homo sapiens, nine Non-small cell lung cancer cell lines, exposure at least 48 h, read-out: GI50, range over the panel) was 0.446 to 5.13 µM and the “mean graph midpoint value (MG_MID) of log10 TGI” value ([3]; Non-small cell lung panel, total inhibition of net cell growth) was −4.54. The LC50 ([4]; Homo sapiens, Ovarian panel, 50% net cell death, read-out: mean graph midpoint value (MG_MID) of Log10 LC50 (converted)) was 89.1 µM, the GI50 ([4]; Homo sapiens, Ovarian panel, read-out: mean graph midpoint value (MG_MID) of Log10 GI50 (converted)) was 5.01 µM and the GI50 ([4]; Homo sapiens, seven ovarian cancer cell lines, exposure at least 48 h, read-out: GI50, range over the panel) was 1.61 to 34.3 µM. The “mean graph midpoint value (MG_MID) of log10 TGI” value ([4]; Ovarian panel, total inhibition of net cell growth) was −4.56, the LC50 ([5]; Homo sapiens, Prostate panel, 50% net cell death, read-out: mean graph midpoint value (MG_MID) of Log10 LC50 (converted)) was > 100 µM and the GI50 ([5]; Homo sapiens, Prostate panel, read-out: mean graph midpoint value (MG_MID) of Log10 GI50 (converted)) was 4.68 µM. The GI50 ([5]; Homo sapiens, two prostate cancer cell lines (PC-3, DU-145), exposure at least 48 h, read-out: GI50, range over the panel) was 3.02 to 7.25 µM, the “mean graph midpoint value (MG_MID) of log10 TGI” value ([5]; Prostate panel, total inhibition of net cell growth) was −4.15 and the CC50 (Renal cancer cell lines; Homo sapiens, Renal panel, 50% net cell death, read-out: mean graph midpoint value (MG_MID) of Log10 LC50 (converted)) was 95.5 µM. For the same molecule, the GI50 (Renal cancer cell lines; Homo sapiens, Renal panel, read-out: mean graph midpoint value (MG_MID) of Log10 GI50 (converted)) was 3.89 µM, the GI50 (Renal cancer cell lines; Homo sapiens, eight renal cancer cell lines, exposure at least 48 h, read-out: GI50, range over the panel) was 1.41 to 8.95 µM and the “mean graph midpoint value (MG_MID) of log10 TGI” value (Renal cancer cell lines; Renal panel, total inhibition of net cell growth) was −4.38.
